What all share (experiment): DTP human tumour cell line panel, 48 h
Test [1] relates to HL-60(TB) leukemia.
Test [2] concerns MOLT-4 leukemia.
The subject of test [3] is HOP-92 NSCLC.
Test [4] relates to HS 578T breast.
For test [5], the system named is KM12 colon.
For test [6], the system named is NCI/ADR-RES ovarian.
In test [7] the test system is M14 melanoma.
The test system of test [8] is UACC-257 melanoma.
The subject of test [9] is 786-0 renal.
For test [10], the system named is MDA-N.
In test [11] the test system is ACHN renal.

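Dose response: 5 concentrations. Exposure: 48 h. Format: 96-well plates. Endpoint: linear interpolation; highest concentration if not reached. TGI: concentration producing complete growth inhibition.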

As a reminder, the TGI is the concentration at which net growth stops. Higher therefore signals less potent growth arrest. As to `Nc1ncnc2c1ccn2C/C=C\CO`, the TGI in [1], in test [2], in test [3], in test [4], in test [5] and in [6] was more than 100 µM each time. Further, the TGI in test [7], in [8], in [9], in [10] and in test [11] was more than 100 µM each time.

Turning to `O=C(O)CC(CC(=O)O)C(=O)O`, the TGI in test [1], in [2], in [3], in test [4], in [5] and in test [6] was more than 100 µM each time. Besides, the TGI in test [7], in test [8], in test [9], in [10] and in test [11] was more than 100 µM throughout.

Turning to `CC1(c2cccs2)CC(c2cccs2)=C(C#N)C(=C(C#N)C#N)N1` (configuration not stated), the TGI in test [1] was 33.1 µM; in [2], more than 100 µM; in test [3], 30.8 µM; in [4], 69.5 µM; in test [5], 32.3 µM; in test [6], 49.5 µM. The total growth inhibition concentration (TGI) was found to be 40.5 µM in test [7]; 32.7 µM in test [8]; 35 µM in [9]; 31.1 µM in test [10]; 32.1 µM in test [11].

On to `CC(C)CC1C(=O)NCCC(NC(=O)C(Cc2ccc(OC(C)(C)C)cc2)NC(=O)OC(C)(C)C)C(=O)NC(Cc2ccccc2)C(=O)NC(Cc2ccccc2)NC1=O` (configuration not stated), for which the TGI in test [1] is 26.9 µM; in test [2], 3.48 µM; in [3] it was 32.1 µM; in test [4] it was more than 100 µM; in [5] it was more than 100 µM; in test [6], more than 100 µM. Moreover, the TGI was 32.2 µM in test [7]; 26.2 µM in test [8]; 4.92 µM in test [9]; more than 100 µM in [10]; 23.3 µM in test [11].

On to `COc1cc(C2SCC(=O)N2c2ccccn2)cc(OC)c1OC` (configuration not stated), for which the TGI in [1] was more than 100 µM; in [2], more than 100 µM; in test [3], 89.2 µM; in test [4] it was more than 100 µM; in test [5], more than 100 µM; in test [6], more than 100 µM. For the same compound, the TGI in test [7] is more than 100 µM; in test [8], more than 100 µM; in [9] it was more than 100 µM; in [10] it was 41.6 µM; in test [11], more than 100 µM.

On to `CCCC[C@@H]1CCN2C[C@@H](O)[C@@H](O)[C@@H]2[C@H]1O`, for which the TGI in test [1], in test [2], in [3], in test [4], in test [5] and in [6] was more than 100 µM in each case. The TGI in test [7], in [8], in test [9], in [10] and in [11] was more than 100 µM in each case.

For the compound `CN(Cc1cnc2nc(N)nc(N)c2n1)c1ccc(C(=O)NC(CCC(=O)NCCC(P(=O)(O)O)P(=O)(O)O)C(=O)O)cc1` (configuration not stated), the TGI in test [1], in test [2], in test [3], in [4], in test [5] and in [6] was more than 100 µM in each case. Moreover, the TGI in test [7], in test [8], in [9], in test [10] and in test [11] was more than 100 µM each time.

Turning to `O=c1cnn(C2OC(C(O)CO)C(O)C2O)c(=O)[nH]1` (configuration not stated), the concentration for total growth inhibition (TGI) in test [1], in [2], in test [3], in [4], in [5] and in test [6] was more than 100 µM each time. For the same compound, the TGI in [7], in test [8], in test [9], in test [10] and in [11] was more than 100 µM each time.

`O=C1NC(NNc2ccccc2)=N/C1=C\c1ccccc1O`: the TGI in test [1], in test [2], in test [3], in [4], in test [5] and in [6] was more than 100 µM throughout. The TGI in [7], in test [8], in test [9], in test [10] and in [11] was more than 100 µM throughout.

On to `CC(=O)c1ccc(NCc2cc(O)ccc2O)cc1`, for which the TGI in test [1] was 76.9 µM; in [2], more than 100 µM; in test [3] it was 39.2 µM; in test [4], more than 100 µM; in test [5] it was 34.2 µM; in [6], more than 100 µM. Besides, the TGI stood at 38.4 µM in [7]; 33.9 µM in [8]; 27.7 µM in test [9]; 43.5 µM in test [10]; 33 µM in test [11].

In the case of `N=C1/C(=C/c2ccc(F)cc2)C(=O)N=C2SC=NN12`, the TGI in [1], in test [2], in test [3], in test [4], in test [5] and in test [6] was more than 100 µM each time. In addition, the TGI in [7], in [8], in test [9], in [10] and in test [11] was more than 100 µM throughout.

With `c1nc(OCC2CCCCC2)c2[nH]cnc2n1`, the TGI in test [1], in [2], in test [3], in test [4], in test [5] and in test [6] was more than 100 µM in each case. Moreover, the TGI in test [7], in test [8], in test [9], in [10] and in test [11] was more than 100 µM each time.

Source of the values: PubChem BioAssay (NCI).
